From ChEMBL document CHEMBL1151820, “Antagonists of the P2X(7) receptor. From lead identification to drug development” (J Med Chem, 2009)

Assays:
P2X purinoceptor 7 [1] = target: T1, P2X purinoceptor 7 (Homo sapiens, UniProt Q99572); assay: Antagonist activity at human P2X7 receptor expressed in human U373 cells assessed as inhibition of BzATP-induced Yo-Pro uptake; assay type: functional, cell-based, U-373MG ATCC
T1 sequence (Q99572 whole entry): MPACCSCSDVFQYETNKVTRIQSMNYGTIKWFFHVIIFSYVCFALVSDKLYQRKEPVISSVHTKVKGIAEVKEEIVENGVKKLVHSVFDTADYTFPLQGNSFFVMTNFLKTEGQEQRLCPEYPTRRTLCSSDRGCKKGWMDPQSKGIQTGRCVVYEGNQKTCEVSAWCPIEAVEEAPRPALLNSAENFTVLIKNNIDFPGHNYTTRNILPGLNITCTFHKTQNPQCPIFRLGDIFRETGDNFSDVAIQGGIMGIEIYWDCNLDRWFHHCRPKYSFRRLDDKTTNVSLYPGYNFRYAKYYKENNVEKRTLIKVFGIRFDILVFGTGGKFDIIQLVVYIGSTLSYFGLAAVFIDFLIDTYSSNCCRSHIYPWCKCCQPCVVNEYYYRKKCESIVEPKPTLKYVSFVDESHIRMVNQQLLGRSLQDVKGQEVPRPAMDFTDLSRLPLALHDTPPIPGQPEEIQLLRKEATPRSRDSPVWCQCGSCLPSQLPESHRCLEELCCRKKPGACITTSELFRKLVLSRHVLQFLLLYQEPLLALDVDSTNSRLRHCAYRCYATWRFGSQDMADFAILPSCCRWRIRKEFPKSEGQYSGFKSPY

P2X purinoceptor 7 [2] = target: T1, P2X purinoceptor 7; assay: Antagonist activity at P2X7 receptor in human THP1 cells assessed as inhibition of BzATP-induced ethidium uptake; assay type: functional, cell-based, THP-1; details: for pIC50: thp-1; for Kb: read-out: pA2 (converted)
[3] = target: T2, P2X purinoceptor 7 (Homo sapiens) (UniProt Q99572); details: HEK293, at 3 µM
T2 sequence (whole entry): T1 sequence (Q99572 whole entry)

inhibition [3] [%]	IC50 (P2X purinoceptor 7 [2]) [nM]	SMILES	further results
–	10	CNC[C@@H](O)Cc1ccc(Cl)c(C(=O)NCC23CC4CC(CC(C4)C2)C3)c1	–
< 10	–	CCOC(=O)Oc1ccc(C[C@H](NC(=O)OCc2ccccc2)C(=O)N2CCN(C(=O)OC(C)(C)C)CC2)cc1	–
–	3.16	O=C(CC1CCCCCC1)Nc1cccc2c(=O)n([C@H]3CCNC3)ccc12	–
< 10	–	CC(C)(C)OC(=O)N1CCN(C(=O)[C@@H](N)Cc2ccc(OS(=O)(=O)c3cccc4cccnc34)cc2)CC1	–
–	15.8	Cc1ccc2nc(CCNCCCO)ccc2c1NC(=O)CC12CC3CC(CC(C3)C1)C2	–
–	0.0501	CC(C)C(CO)n1ccc2c(NC(=O)CC34CC5CC(CC(C5)C3)C4)cccc2c1=O (stereo not given)	–
–	> 10000	O=C(NCC12CC3CC(CC(C3)C1)C2)c1ccc(Cl)cc1	–
–	7.94	O=C(CC12CC3CC(CC(C3)C1)C2)Nc1cccc2nc(NCCCO)ccc12	–
–	15.8	CN(CCO)CCc1cc(C(=O)NCC23CC4CC(CC(C4)C2)C3)c(Cl)cn1	–
–	2.51	O=C(Cc1ccc(F)c(C(F)(F)F)c1)Nc1cccc2c(=O)n([C@@H]3CNC[C@H]3O)ccc12	–

Continued, molecule first:

SMILES	inhibition [3] [%]	IC50 (P2X purinoceptor 7 [2]) [nM]	further results
Fc1cccc(CNC2=N[C@@H](c3ccccc3)[C@@H](c3ccccc3)N2)c1	–	–	IC50 (P2X purinoceptor 7 [1]): 100 nM
O=C(O)CNCCNc1ccc(Cl)c(C(=O)NCC23CC4CC(CC(C4)C2)C3)c1	–	–	pIC50 (P2X purinoceptor 7 [2]): > 5
Cc1ccc(S(=O)(=O)Oc2ccc(C[C@H](NC(=O)OCc3ccccc3)C(=O)N3CCN(C(=O)OC(C)(C)C)CC3)cc2)cc1	71	–	–
Fc1ccc(CC2=N[C@H](c3ccccc3)[C@H](c3ccccc3)N2)cc1	–	–	IC50 (P2X purinoceptor 7 [1]): 79.4 nM
COc1ccc(Cl)c(C(=O)NCC23CC4CC(CC(C4)C2)C3)c1	–	–	Kb (P2X purinoceptor 7 [2]): 1.58 nM
CC(C)(C)OC(=O)N1CCN(C(=O)[C@H](Cc2ccc(OS(C)(=O)=O)cc2)NC(=O)OCc2ccccc2)CC1	< 10	–	–
Cc1ccccc1NC(=O)CC12CC3CC(CC(C3)C1)C2	–	–	Kb (P2X purinoceptor 7 [2]): 158 nM
CC(=O)NC(CCc1ccncc1)COc1ccc(-c2cccc([N+](=O)[O-])c2)cc1 (stereo not given)	–	> 10000	–
CC(CC1=N[C@H](c2ccccc2)[C@H](c2ccccc2)N1)c1ccccc1 (stereo not given in full)	–	–	IC50 (P2X purinoceptor 7 [1]): 31.6 nM
Fc1cccc(COC2=N[C@H](c3ccccc3)[C@H](c3ccccc3)N2)c1	–	–	IC50 (P2X purinoceptor 7 [1]): 200 nM
COC(=O)N(C)C(CCc1ccncc1)COc1ccc(-c2cccc([N+](=O)[O-])c2)cc1 (stereo not given)	–	> 10000	–
CC(CO)NC(=O)c1cnc(N2CCC(N3C(=O)OCc4ccccc43)CC2)nc1C(F)(F)F (stereo not given)	–	–	pIC50 (P2X purinoceptor 7 [2]): >= 4.5
CC(C)(C)OC(=O)N1CCN(C(=O)[C@H](Cc2ccc(OS(=O)(=O)c3cccc4cccnc34)cc2)NC(=O)OCc2ccccc2)CC1	53	–	–
CCC(=O)Oc1ccc(C[C@H](NC(=O)OCc2ccccc2)C(=O)N2CCN(C(=O)OC(C)(C)C)CC2)cc1	< 10	–	–
Clc1cccc(CCC2=N[C@H](c3ccccc3)[C@H](c3ccccc3)N2)c1	–	–	IC50 (P2X purinoceptor 7 [1]): 126 nM
CC(C)(C)OC(=O)N1CCN(C(=O)[C@H](Cc2ccc(OC(=O)c3ccccc3)cc2)NC(=O)OCc2ccccc2)CC1	47	–	–
Cc1cccc(C)c1NC(=O)CN1CC2CCC(C1)N2c1ncnc2sccc12	–	–	pIC50 (P2X purinoceptor 7 [2]): >= 5
CC(C)(C)OC(=O)N1CCN(C(=O)[C@H](Cc2ccc(OS(=O)(=O)c3cccc4cccnc34)cc2)NS(C)(=O)=O)CC1	< 10	–	–
Clc1ccc(CCC2=N[C@H](c3ccccc3)[C@H](c3ccccc3)N2)cc1	–	–	IC50 (P2X purinoceptor 7 [1]): > 1000 nM
O=C(CNc1ccc(F)c(F)c1)Nc1cc(OC2CCNCC2)ccc1Cl	–	–	pIC50 (P2X purinoceptor 7 [2]): > 4.5
CC(C)(C)OC(=O)N1CCN(C(=O)[C@H](Cc2ccc(OS(=O)(=O)c3cccc4cnccc34)cc2)NC(=O)OCc2ccccc2)CC1	43	–	–
CCOC(=O)N[C@@H](Cc1ccc(OS(=O)(=O)c2cccc3cccnc23)cc1)C(=O)N1CCN(C(=O)OC(C)(C)C)CC1	< 10	–	–
NC1CCN(c2nccc(C(=O)NCC34CC5CC(CC(C5)C3)C4)c2Cl)CC1	–	–	pIC50 (P2X purinoceptor 7 [2]): > 5
Cc1ccc(S(=O)(=O)N[C@@H](Cc2ccc(OS(=O)(=O)c3cccc4cccnc34)cc2)C(=O)N2CCN(C(=O)OC(C)(C)C)CC2)cc1	32	–	–
CC(C)NC(=O)c1cnc(N2CCC(N3C(=O)OCc4ccccc43)CC2)c(Cl)c1	–	–	pIC50 (P2X purinoceptor 7 [2]): >= 4.5
CN(C(=O)c1ccc(N2CCC(N3C(=O)OCc4ccccc43)CC2)c([N+](=O)[O-])c1)C1CCCCC1	–	–	pIC50 (P2X purinoceptor 7 [2]): >= 4.5
O=C(NCC12CC3CC(CC(C3)C1)C2)c1cc(OC2CCNCC2)ncc1Cl	–	–	pIC50 (P2X purinoceptor 7 [2]): > 5
CC(C)(C)OC(=O)N1CCN(C(=O)[C@H](Cc2ccc(OS(=O)(=O)c3cccc4cccnc34)cc2)NS(=O)(=O)c2ccccc2)CC1	< 10	–	–
Clc1cccc(-c2nnnn2Cc2c(Cl)cccc2Cl)c1Cl	–	126	–
COC(=O)NC(CCc1ccncc1)COc1ccc(-c2cccc([N+](=O)[O-])c2)cc1 (stereo not given)	–	> 10000	–
